From ChEMBL document CHEMBL3739327, “Novel indole-based sigma-2 receptor ligands: synthesis, structureaffinity relationship and antiproliferative activity” (Medchemcomm, 2015)
Activity calls are given as the source filed them. The rule behind the calls is not given here.

Tests used:
[1] = Antiproliferative activity against human DU145 cells assessed as reduction in cell viability after 24 hrs by MTT assay; format: functional, cell-based; conditions: DU-145, 24 h
MCF7 [2] = assay: Antiproliferative activity against human MCF7 cells assessed as reduction in cell viability after 24 hrs by MTT assay; format: functional, cell-based; conditions: MCF7, 24 h
[3] = biological target: Sigma non-opioid intracellular receptor 1 (Rattus norvegicus, UniProt Q9R0C9); assay: Displacement of [3H]-(+)-pentazocine from sigma 1 receptor in rat brain by competition binding assay; format: tissue-based
Rattus norvegicus = species: Rattus norvegicus; assay: Selectivity ratio of Ki for sigma 1 receptor in rat brain to Ki for sigma 2 receptor in rat liver membrane; format: cell membranes
[4] = Cell cycle arrest in human DU145 cells assessed as accumulation at G1 phase after 24 hrs by propidium iodide staining-based flow cytometry; format: functional; conditions: DU-145
C6 = assay: Antiproliferative activity against rat C6 cells assessed as reduction in cell viability after 24 hrs by MTT assay; format: functional, cell-based; conditions: C6, 24 h
[5] = Cell cycle arrest in human DU145 cells assessed as accumulation at S phase at 30 uM after 24 hrs by propidium iodide staining-based flow cytometry (reference value: 38.6 %); format: functional; conditions: DU-145
[6] = Cell cycle arrest in human DU145 cells assessed as accumulation at G1 phase at 30 uM after 24 hrs by propidium iodide staining-based flow cytometry (reference value: 58.2 %); format: functional; conditions: DU-145
[7] = Displacement of [3H]-DTG from sigma 2 receptor in rat liver membrane by competition binding assay in presence of dextrallorphan; format: cell membranes
MDA-MB-435 [8] = assay: Induction of apoptosis in human MDA-MB-435 cells assessed as decreased cyclin D1 expression at 10 uM incubated for 24 hrs by Western blot analysis; format: functional, cell-based; conditions: TDE = time-dependent effect
[9] = Displacement of [3H]-DTG from sigma 2 receptor in rat brain by competition binding assay; format: tissue-based
MDA-MB-435 [10] = assay: Induction of apoptosis in human MDA-MB-435 cells assessed as decreased phospho-Rb expression at 10 uM incubated for 24 hrs by Western blot analysis; format: functional, cell-based
MCF7 [11] = assay: Antiproliferative activity against human MCF7 cells assessed as reduction in cell viability after 48 hrs by MTT assay; format: functional, cell-based; conditions: MCF7, 48 h
MDA-MB-435 [12] = assay: Induction of apoptosis in human MDA-MB-435 cells assessed as decreased cyclin B1 expression at 10 uM incubated for 24 hrs by Western blot analysis; format: functional, cell-based
[13] = Cell cycle arrest in human DU145 cells assessed as accumulation at G1 phase at 15 to 25 uM after 24 hrs by propidium iodide staining-based flow cytometry (reference value: 58.2 %); format: functional; conditions: DU-145
[14] = biological target: Sigma non-opioid intracellular receptor 1 (Cavia porcellus, UniProt Q60492); assay: Displacement of [3H]-(+)-pentazocine from sigma-1 receptor in guinea pig brain membrane by competition binding assay; format: cell membranes
[15] = Cell cycle arrest in human DU145 cells assessed as accumulation at S phase at 40 uM after 24 hrs by propidium iodide staining-based flow cytometry (reference value: 38.6 %); format: functional; conditions: DU-145
[16] = Selectivity ratio of Ki for sigma 1 receptor in guinea pig brain membrane to Ki for sigma 2 receptor in rat liver membrane; format: cell membranes
[17] = Cell cycle arrest in human DU145 cells assessed as accumulation at G1 phase at 40 uM after 24 hrs by propidium iodide staining-based flow cytometry (reference value: 58.2 %); format: functional; conditions: DU-145

Sigma non-opioid intracellular receptor 1 (Rattus norvegicus, UniProt Q9R0C9), sequence (Q9R0C9 whole entry): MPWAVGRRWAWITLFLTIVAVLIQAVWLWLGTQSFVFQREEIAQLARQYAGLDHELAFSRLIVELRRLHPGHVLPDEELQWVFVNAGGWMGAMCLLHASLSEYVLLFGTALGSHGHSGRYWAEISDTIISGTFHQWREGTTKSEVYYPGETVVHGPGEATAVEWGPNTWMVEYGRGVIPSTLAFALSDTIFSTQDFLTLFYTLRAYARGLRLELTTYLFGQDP
Sigma non-opioid intracellular receptor 1 (Cavia porcellus, UniProt Q60492), sequence (Q60492 whole entry): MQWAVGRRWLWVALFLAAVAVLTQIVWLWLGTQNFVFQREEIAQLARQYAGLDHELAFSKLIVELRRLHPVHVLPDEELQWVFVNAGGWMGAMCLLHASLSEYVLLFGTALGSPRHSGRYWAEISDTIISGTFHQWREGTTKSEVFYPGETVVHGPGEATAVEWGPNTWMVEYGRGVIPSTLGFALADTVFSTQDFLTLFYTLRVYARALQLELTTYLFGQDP

Structure (SMILES)	Ki [3] [nM]	Ratio Ki (Rattus norvegicus)	Ki [7] [nM]	other results
COc1cc2c(cc1OC)CN(CCCCc1cn(-c3ccc(F)cc3)c3ccccc13)C2	256	4.8	53.8	EC50 [1]: 26.9 µM; EC50 (MCF7 [2]): 17 µM; Activity [4]: Dose-dependent effect; EC50 (C6): 44.1 µM; Activity [5]: 19.3%; Activity [6]: 80.5%
COc1cc2c(cc1OC)CN(CCCCn1cc(CCF)c3ccccc31)CC2	493	17.9	27.5	
Fc1ccc(-n2cc(CCCCN3CCC4(CC3)OCc3ccccc34)c3ccccc32)cc1 [SIRAMESINE]			3.08	EC50 [1]: 13.9 µM; Activity (MDA-MB-435 [8]): tde; EC50 (MCF7 [2]): 23.6 µM; Activity [4]: Dose-dependent effect; IC50 [9]: 0.12 nM; EC50 (C6): 43.1 µM; Activity (MDA-MB-435 [10]): Active; EC50 (MCF7 [11]): 12.3 µM; Activity (MDA-MB-435 [12]): Active; Activity [13]: 75.7%; Ki [14]: 10.5 nM
FCCOCCOc1ccc(N2CCN(CCCCc3cn(-c4ccc(F)cc4)c4ccccc34)CC2)cc1	1110	2.4	458	
N#CC1(c2ccccc2)CCN(CCCCc2cn(-c3ccc(I)cc3)c3ccccc23)CC1	386	20.9	18.5	
FCCc1cn(CCCCN2CCC3(CC2)OCc2ccccc23)c2ccccc12	11	0.4	29.8	
N#CC1(c2ccccc2)CCN(CCCCc2cn(-c3ccc(F)cc3)c3ccccc23)CC1	2.58	0.9	3.03	
COc1cc2c(cc1OC)CN(CCCCc1cn(-c3ccc(F)cc3)c3ccccc13)CC2	531	10.8	49.2	EC50 [1]: 28.8 µM; Activity [15]: 15.9%; EC50 (MCF7 [2]): 20.9 µM; Activity [4]: Dose-dependent effect; EC50 (C6): 76.5 µM; Ratio Ki [16]: 260; EC50 (MCF7 [11]): 17.8 µM; Activity [17]: 84.1%

The remaining molecules from weak to strong by Ki [3], led by results:

Ki [3] [nM]	Ratio Ki (Rattus norvegicus)	Ki [7] [nM]	Structure (SMILES)	other results
2160	1.1	1880	FCCOCCOCCOc1ccc(N2CCN(CCCCc3cn(-c4ccc(F)cc4)c4ccccc34)CC2)cc1	
614	9	68	FCCOc1ccc(N2CCN(CCCCc3cn(-c4ccc(F)cc4)c4ccccc34)CC2)cc1	
263	9.2	28.5	COc1cc2c(cc1OC)CN(CCCCn1cc(CCCF)c3ccccc31)CC2	
257	5.3	48.4	FCCOc1cccc(N2CCN(CCCCc3cn(-c4ccc(F)cc4)c4ccccc34)CC2)c1	
246	5.6	44	FCCn1cc(CCCCN2CCC3(CC2)OCc2ccccc23)c2ccccc21	
16.6	1.3	12.4	COc1cc2c(cc1OC)CN(CCCCC(=O)c1ccc(F)cc1)CC2	
